Results on four compounds are retold here after article PMC12406196, “Anticoronavirus Activity of Uridine Glycoconjugates Containing a 1,2,3-Triazole Moiety” (Journal of Medicinal Chemistry, 2025).

This assay relates to SARS-CoV-2 S protein (S2 domain). In kind it is cell-based. The following applies: Western blot with S2-specific antibodies. A general note: A western blot detects proteins with antibodies after separation by electrophoresis.
Take `CC(=O)OC[C@H]1O[C@@H](OCc2cn(C[C@H]3O[C@@H](n4ccc(=O)[nH]c4=O)[C@H](O[Si](C)(C)C(C)(C)C)[C@@H]3O[Si](C)(C)C(C)(C)C)nn2)[C@H](OC(C)=O)[C@@H](OC(C)=O)[C@H]1OC(C)=O` [Compound 15, 2′,3′-di-O-tert-Butyldimethylsilyl-5′-deoxy-5′-[4-(2″,3″,4″,6″-tetra-O-acetyl-β-D-galactopyranosyloxymethyl)-1,2-3-triazol-1-yl]-uridine]: the “S2 domain levels in the medium of SC-VLP-producing cells” value (shortened to “S2 domain levels in the medium”) is listed as “minor alterations”.
Take `CC(=O)OC[C@H]1O[C@@H](SCc2cn(C[C@H]3O[C@@H](n4ccc(=O)[nH]c4=O)[C@H](O[Si](C)(C)C(C)(C)C)[C@@H]3O[Si](C)(C)C(C)(C)C)nn2)[C@H](OC(C)=O)[C@@H](OC(C)=O)[C@@H]1OC(C)=O` [Compound 20, 2′,3′-di-O-tert-Butyldimethylsilyl-5′-deoxy-5′-[4-(2″,3″,4″,6″-tetra-O-acetyl-β-D-glucopyranosylthiomethyl)-1,2-3-triazol-1-yl]-uridine]: the “S2 domain levels in the medium” value is “minor alterations”.
For the compound `CC(=O)OC[C@H]1O[C@@H](SCc2cn(C[C@H]3O[C@@H](n4ccc(=O)[nH]c4=O)[C@H](O[Si](C)(C)C(C)(C)C)[C@@H]3O[Si](C)(C)C(C)(C)C)nn2)[C@H](OC(C)=O)[C@@H](OC(C)=O)[C@H]1OC(C)=O` [Compound 21, 2′,3′-di-O-tert-Butyldimethylsilyl-5′-deoxy-5′-[4-(2″,3″,4″,6″-tetra-O-acetyl-β-D-galactopyranosylthiomethyl)-1,2-3-triazol-1-yl]-uridine], the “S2 domain levels in the medium” value was “more pronounced reduction”.
To `CC(=O)OC[C@H]1O[C@@H](SCn2cc(COC[C@H]3O[C@@H](n4ccc(=O)[nH]c4=O)[C@H](O[Si](C)(C)C(C)(C)C)[C@@H]3O[Si](C)(C)C(C)(C)C)nn2)[C@H](OC(C)=O)[C@@H](OC(C)=O)[C@@H]1OC(C)=O` [Compound 24, 2′,3′-di-O-tert-Butyldimethylsilyl-5′-O-[(1-(2″,3″,4″,6″-tetra-O-acetyl-β-D-glucopyranosylthiomethyl)-1,2-3-triazol-4-yl)-methyl]-uridine] belongs “minor alterations”.
